# PMC9090415, “Discovery of small molecule inhibitors of Plasmodium falciparum apicoplast DNA polymerase” (Journal of Enzyme Inhibition and Medicinal Chemistry, 2022)
# Target: P. falciparum apicoplast DNA polymerase (Pf-apPOL) (Plasmodium falciparum, UniProt Q8ILY1)
# Assay: Fluorescence-based high-throughput DNA polymerase assay (molecular beacon), primary screen and dose-response;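 on % inhibition ApPOL 90': test concentration in µM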;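 on % inhibition apPOL 180': test concentration in µM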
# Assay type: biochemical
# Details: for DNA Pol: unit not given, 90 min, 10 µM; for IC50: supplemental file 2, sheet IC50 nontoxic compounds, Pf-apPOL
# Procedure, shortened: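 Single-point screening used 10 µM compound with 20 nM polymerase, 20 nM hairpin substrate and 6 µM dNTPs for 90 min at 25 °C. Confirmatory titrations (2.5–80 µM) followed fluorescence at three times, and IC50 was derived from a fit including a cooperativity term n.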
# Sequence of P. falciparum apicoplast DNA polymerase (Pf-apPOL) (Q8ILY1 entry or part of it): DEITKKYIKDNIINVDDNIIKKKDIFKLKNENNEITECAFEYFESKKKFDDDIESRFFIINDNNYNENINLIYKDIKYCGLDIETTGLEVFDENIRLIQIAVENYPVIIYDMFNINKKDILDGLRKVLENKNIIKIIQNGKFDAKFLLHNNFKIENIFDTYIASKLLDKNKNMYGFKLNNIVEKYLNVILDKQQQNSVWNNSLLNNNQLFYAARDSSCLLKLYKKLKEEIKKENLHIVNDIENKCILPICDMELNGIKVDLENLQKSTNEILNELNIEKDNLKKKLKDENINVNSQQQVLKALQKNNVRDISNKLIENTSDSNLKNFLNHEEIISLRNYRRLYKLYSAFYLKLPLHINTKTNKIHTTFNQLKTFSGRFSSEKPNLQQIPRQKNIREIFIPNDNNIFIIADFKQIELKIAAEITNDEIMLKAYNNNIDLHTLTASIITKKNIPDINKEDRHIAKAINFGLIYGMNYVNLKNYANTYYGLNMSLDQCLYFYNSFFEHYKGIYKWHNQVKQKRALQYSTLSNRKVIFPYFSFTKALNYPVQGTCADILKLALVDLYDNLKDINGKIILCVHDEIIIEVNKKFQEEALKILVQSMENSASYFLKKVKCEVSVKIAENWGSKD
smiles,measurement,setting,value
O=C1N/C(=N/c2ccccc2Cl)S/C1=C/c1ccc([N+](=O)[O-])o1 [KU0054524],% inhibition Apo pol 10',"DRC-1, concentration 2.5",7.564%
same,% inhibition Apo pol 10',"DRC-1, concentration 5",28.3365%
same,% inhibition Apo pol 10',"DRC-1, concentration 10",42.7276%
same,% inhibition Apo pol 10',"DRC-1, concentration 20",56.2802%
same,% inhibition Apo pol 10',"DRC-1, concentration 40",80.0033%
same,% inhibition Apo pol 10',"DRC-1, concentration 80",85.9961%
same,% inhibition Apol 90',"DRC-1, 90', concentration 2.5",2.857%
same,% inhibition Apol 90',"DRC-1, 90', concentration 5",16.2843%
same,% inhibition Apol 90',"DRC-1, 90', concentration 10",26.4398%
same,% inhibition Apol 90',"DRC-1, 90', concentration 20",38.2807%
same,% inhibition Apol 90',"DRC-1, 90', concentration 40",70.6237%
same,% inhibition Apol 90',"DRC-1, 90', concentration 80",84.7542%
same,% inhibition apPOL 180',"DRC-1, 180', concentration 2.5",-2.619%
same,% inhibition apPOL 180',"DRC-1, 180', concentration 5",9.438%
same,% inhibition apPOL 180',"DRC-1, 180', concentration 10",15.4402%
same,% inhibition apPOL 180',"DRC-1, 180', concentration 20",23.638%
same,% inhibition apPOL 180',"DRC-1, 180', concentration 40",57.9424%
same,% inhibition apPOL 180',"DRC-1, 180', concentration 80",81.189%
same,% inhibition Apo pol 5',"DRC-2, 5', concentration 10 (unit not given)",42%
same,% inhibition Apol 40',"DRC-2, 40', concentration 40 (unit not given)",58%
same,% inhibition ApPOL 90',"DRC-2, 90', concentration 10 (unit not given)",42%
same,% inhibition apPOL 180',"DRC-2, 180', concentration 10 (unit not given)",31%
same,% inhibition apPOL 180',"DRC-2, 180', concentration 20 (unit not given)",58%
same,% inhibition Apo pol 5',"DRC-2, 5', concentration 2.5",17%
same,% inhibition Apo pol 5',"DRC-2, 5', concentration 5",22%
same,% inhibition Apo pol 5',"DRC-2, 5', concentration 10",42%
same,% inhibition Apo pol 5',"DRC-2, 5', concentration 20",46%
same,% inhibition Apo pol 5',"DRC-2, 5', concentration 40",25%
same,% inhibition Apo pol 5',"DRC-2, 5', concentration 80",31%
same,% inhibition Apo pol 5',"DRC-2, 5', concentration 80 (unit not given)",31%
same,% inhibition Apol 40',"DRC-2, 40', concentration 2.5",14%
same,% inhibition Apol 40',"DRC-2, 40', concentration 5",21%
same,% inhibition Apol 40',"DRC-2, 40', concentration 10",45%
same,% inhibition Apol 40',"DRC-2, 40', concentration 20",62%
same,% inhibition Apol 40',"DRC-2, 40', concentration 40",58%
same,% inhibition Apol 40',"DRC-2, 40', concentration 80",61%
same,% inhibition ApPOL 90',"DRC-2, 90', concentration 2.5",11%
same,% inhibition ApPOL 90',"DRC-2, 90', concentration 5",16%
same,% inhibition ApPOL 90',"DRC-2, 90', concentration 10",42%
same,% inhibition ApPOL 90',"DRC-2, 90', concentration 20",63%
same,% inhibition ApPOL 90',"DRC-2, 90', concentration 40",65%
same,% inhibition ApPOL 90',"DRC-2, 90', concentration 80",68%
same,% inhibition apPOL 180',"DRC-2, 180', concentration 2.5",7%
same,% inhibition apPOL 180',"DRC-2, 180', concentration 5",8%
same,% inhibition apPOL 180',"DRC-2, 180', concentration 10",31%
same,% inhibition apPOL 180',"DRC-2, 180', concentration 20",58%
same,% inhibition apPOL 180',"DRC-2, 180', concentration 40",67%
same,% inhibition apPOL 180',"DRC-2, 180', concentration 80",73%
same,DNA Pol,primary screen value of the 186 hits,44
same,DNA Pol,"primary screen value, head ""DNA Pol""",44
O=C(O)CC1SC(c2ccc3c(c2)OCO3)=NC1=O (centres unmarked) [Molecule 69],IC50,,29.2 µM
COc1ccc(NC(=O)Cn2ccc3c(=O)[nH]ccc32)cc1Cl [Molecule 10],IC50,,6.2 µM
O=C(Cn1ccc2c(=O)[nH]ccc21)Nc1ccccc1Cl [Molecule 19],IC50,,6.87 µM
